Reference: patent US9273304B2, “Inactivation method” (Thermo Fisher Scientific Baltics UAB, priority 2006, dated 2016)

Key:
Format in all cases: biochemical
Taq DNA polymerase [1] = target: T1, Taq DNA polymerase (Thermus aquaticus, UniProt P19821); assay: Temperature effect on activity of modified versus unmodified Taq DNA polymerase; settings: FIG. 7
Procedure: The activity assay for both DNA polymerases was as described in the Example 2 with the following modifications: • 1. DNA polymerization using the unmodified DNA polymerase was carried out in the buffer of the following composition: 10 mM Tris-HCl (pH 8.8 at 25° C.), 50 mM KCl, 1.5 mM MgCl2, and 0.08% Nonidet P40. • 2. DNA polymerization using the modified DNA polymerase was carried out in the buffer of the following composition: 20 mM Tris-HCl (pH 8.3 at 25° C.), 20 mM KCl, 5 mM (NH4)2SO4, and 1.5 mM MgCl2.
Enzyme activities at different temperatures were normalized to the activity of the unmodified Taq DNA polymerase at 70° C.

[2] = tested on: CFTR gene / insulin gene, human DNA; assay: PCR comparison with commercial hot-start Taq DNA polymerases (sensitivity, Fast PCR, extension time)
Procedure: Sets of PCR reactions were carried out in the Mastercycler (Eppendorf). The reactions were carried out with the following amounts of DNA polymerases: 0.3125 activity units, 0.625 activity units, 1.25 activity units, and 2.5 activity units. These sets of PCR were performed under conditions optimal for each DNA polymerase. The buffers for both the modified DNA polymerase of the current invention and the unmodified DNA polymerase were described in the Examples 7 and 11, while the buffers for the commercial DNA polymerases were those recommended by the vendors. All experiments were performed in the presence of 0.2 mM dNTP, 0.5 μM of each primers and human DNA (100 ng/50 μl). The PCR primers for amplification of the CFTR gene were described in the Example 8.
The PCR components were mixed at room temperature and the reaction was carried using the following cycling profile: 95° C.—4 min; (95° C.—0.5 min, 50° C.—0.5 min, 72° C.—1 min)—40 cycles; 72° C.—7 min, with the exception of the experiments with the HotStarTaq DNA polymerase, were 15 min pre-incubation at 95° C. was used, as recommended by the vendor.
Amplifications and analysis of reaction products were performed as described in the Example 12. The 1.25 activity units of each polymerase were used in the PCR. The following amounts of human DNA were used as templates in the PCR: 0.1 ng, 1 ng, 10 ng, and 100 ng.
Amplifications and analysis of PCR products were performed as described in the Example 12. The 1.25 activity units of each polymerase were used in the PCR. The set of PCR reactions was carried out at 20, 25, 30, 35 and 40 thermal cycles. respectively.
Sets of PCR reactions were carried out in the GeneAmp® PCR System 9700 (Applied Biosystems). The reactions were carried out with 1 activity unit of DNA polymerases. These sets of PCR reactions were performed in 20 μl of the buffers optimal for each. DNA polymerase. The buffers for the modified Tag polymerase and the unmodified Taq DNA polymerases were described in the Examples 7 and 11, while the buffers for the commercial DNA polymerases were those recommended by the vendors. The following commercial DNA polymerases were chosen for comparison: the FastStart Taq DNA polymerase (Roche), the AmpliTaq Gold DNA polymerase (Applied Biosystems), and the HotStarTaq DNA polymerase (Qiagen). All experiments were performed in the presence of 0.2 mM dNTP, 0.5 μM of each PCR primer and human DNA (40 ng/20 μl). The following primers were used for amplification of the insulin gene: […]
The PCR components were mixed in thin-walled PCR tubes on ice and the 500 bp amplicon was generated using the following reaction profile: 95° C.—30 s; (95° C.—0 s, 62° C.—12 s)—30 cycles; 72° C.—10 s.
Amplifications and analysis of PCR products were performed as described in the Example 12. […]

Taq DNA polymerase [3] = target: T1, Taq DNA polymerase; assay: 5′-3′ exonuclease activity: cleavage of 5′-labelled oligonucleotide duplexes at 37° C.; settings: 4 hours, with or without dNTPs, FIG. 9, part B
Procedure: The exonuclease activity was determined using the following labeled complementary oligonucleotides: [SEQ ID NO: 3] 5′-[…]-3′ and [SEQ ID NO: 4] 5′-[…]-3′. Equal amounts (10 units) of the unmodified enzyme and the modified enzyme were incubated with the oligonucleotide duplexes for 4 hours at 37° C. in 10 μl of reaction buffer. Activity of the unmodified Taq DNA polymerase was tested in the following buffer: 75 mM Tris-HCl (pH 8.8 at 25° C.), 20 mM (NH4)SO4, 0.01% Tween20, and 2 mM MgCl2, while the buffer composition to test the modified Taq DNA polymerase was the following: 20 mM Tris-HCl (pH 8.3 at 25° C.), 20 mM KCl, 5 mM (NH4)SO4, and 2 mM MgCl2. Both reaction mixtures were tested either in the presence or in the absence of dNTPs.
Reactions were terminated by addition of 5 μl of a “stop” solution (95% (v/v) formamide and 0.01% bromophenol blue). After heating at 95° C. for 2 minutes, the samples were cooled in ice, and then they were loaded onto 15% denaturing acrylamide gel (29:1 acrylamide/bisacrylamide). Electrophoresis was performed in 89 mM Tris-borate (pH8.3 at 37° C.) supplemented with 2 mM EDTA for one hour at ˜50 V/cm. After electrophoresis, the gels were fixed in 10% acetic acid and dried. The gels were analyzed using Cyclone Storage Phosphor System and OptiQuant™ Image Analysis Software.

T1 sequence (P19821 whole entry): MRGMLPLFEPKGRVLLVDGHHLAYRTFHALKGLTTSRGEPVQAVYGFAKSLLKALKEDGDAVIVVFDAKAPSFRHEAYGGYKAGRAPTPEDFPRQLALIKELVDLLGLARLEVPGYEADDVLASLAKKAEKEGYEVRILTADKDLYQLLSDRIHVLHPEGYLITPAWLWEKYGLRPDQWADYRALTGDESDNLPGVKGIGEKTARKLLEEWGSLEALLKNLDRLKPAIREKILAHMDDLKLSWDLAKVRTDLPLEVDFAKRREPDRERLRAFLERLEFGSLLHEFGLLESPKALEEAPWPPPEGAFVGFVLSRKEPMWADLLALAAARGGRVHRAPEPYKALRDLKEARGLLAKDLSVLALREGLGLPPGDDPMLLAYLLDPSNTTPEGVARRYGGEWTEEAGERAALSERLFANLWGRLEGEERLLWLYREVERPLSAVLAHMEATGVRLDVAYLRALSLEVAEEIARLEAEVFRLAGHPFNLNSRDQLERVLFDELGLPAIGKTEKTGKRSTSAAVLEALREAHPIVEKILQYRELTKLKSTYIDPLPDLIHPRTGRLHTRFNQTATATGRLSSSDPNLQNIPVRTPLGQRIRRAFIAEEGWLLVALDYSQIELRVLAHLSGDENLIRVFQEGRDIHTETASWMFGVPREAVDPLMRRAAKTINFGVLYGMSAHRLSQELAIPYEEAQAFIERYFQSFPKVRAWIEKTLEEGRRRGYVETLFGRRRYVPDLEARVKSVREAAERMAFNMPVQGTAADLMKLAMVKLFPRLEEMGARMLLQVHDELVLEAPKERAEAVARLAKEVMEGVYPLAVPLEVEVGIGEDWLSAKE

Substance: Taq DNA polymerase modified with N-etoxycarbonyl-2,3-dimethylmaleinimide: Recombinant Taq DNA polymerase reversibly inactivated by reaction with N-ethoxycarbonyl-2,3-dimethylmaleinimide in aqueous solution (preferred molar ratio 1/110)
- residual activity at 70° C. (Taq DNA polymerase [1]; 70° C., normalized to unmodified Taq DNA polymerase at 70° C.): ~20%
- activity at different temperatures up to 50° C. (Taq DNA polymerase [1]; up to 50° C., without reactivation): practically inactive
- performance in the “Fast PCR” application, compared with DNA polymerases from other vendors ([2]; FIG. 14): superior performance
- primer extension time, compared with DNA polymerases from other vendors ([2]; FIG. 15): shorter
- PCR sensitivity regarding the enzyme concentration, compared with DNA polymerases from other vendors ([2]; versus HotStarTaq, AmpliTaq Gold, FastStart Taq, FIG. 11): higher sensitivity
- PCR sensitivity regarding the target DNA concentration, compared with DNA polymerases from other vendors ([2]; versus HotStarTaq, AmpliTaq Gold, FastStart Taq, FIG. 12): higher sensitivity
- 5′-3′ exonuclease activity (Taq DNA polymerase [3]): practically devoid of exonuclease activity
